Results from US11771699B2, “Combined treatment with a TLR7 agonist and an HBV capsid assembly inhibitor” (Hoffmann-La Roche Inc., priority 2015, dated 2023).
Read-outs that look alike come from different tables or passages of the source.

How the values were obtained:
[1] = system: HBV (AAV-HBV); assay type: in vivo, C57BL/6 mice; conditions: for effect on HBV DNA: Example 7, FIG. 4-6; for effect on HBV DNA / effect on HBsAg: single treatment, 6 weeks PO, Compound 5 12 mg/kg QD; for effect on HBsAg: Example 7, FIG. 5-6; for reduction in HBV DNA: Compound 2 12 mg/kg QD
Description: 4-week old male C57BL/6 mice, specific pathogen free, were purchased from Shanghai Laboratory Animal Center of Chinese Academy of Sciences (SLAC) and housed in an animal care facility in individually ventilated cages under controlled temperature and light conditions following the Institutional Animal Care guidelines. AAV/HBV virus was purchased from Beijing FivePlus Molecular Medicine Institute (Beijing, China). This recombinant virus carries 1.3 copies of the HBV genome, which was packaged in AAV serotype 8 (AAV8) capsids. C57BL/6 mice were injected with […], of recombinant virus, diluted in saline buffer, through tail vein injection. The mice were bled at days 7 and 14 post injection to monitor HBV surface antigen (HBsAg), HBV e antigen (HBeAg), HBs antibody (HBsAb) and HBV genomic DNA in serum, and then were randomly grouped according to these HBV biomarkers.
Measurement of HBV Biomarkers
Serum HBsAg and HBeAg was measured using CLIA kits (Autobio Diagnostics Co., Ltd, Zhengzhou, China) according to the manufacturer's instructions. The lower limit of detection for HBsAg and HBeAg was 0.1 ng/mL and 0.25 NCU/mL (national clinical unit/mL) respectively. Serum dilution of 100-fold (for HBsAg) or 500-fold (for HBeAg) was used to obtain values within the linear range of the standard curve. Serum HBV DNA was extracted using a MagNA Pure 96 DNA and Viral NA Small Volume Kit (Roche) following the manufacturer's instructions. The DNA samples were analyzed by real-time quantitative PCR (qPCR) using a HBV-specific primer and probe set for specific amplification and detection of a 128 bp HBV genome region from the nucleotide 2969 to 3096. The sequences of the primers and probe are shown as follows: […]
Anti-HBs in the serum was measured on day 24 after the treatment ended using Anti-HBs CLIA kits (Autobio Diagnostics Co., Ltd, Zhengzhou, China) following the manufacturer's instructions. The serum samples were 3-fold diluted and 50 μL of the diluted samples were used for the assay.
10 mg/mL of Compound 1 and 1.2 mg/mL of Compound 2 was formulated as an inclusion complex with 2% Klucel LF, 0.1% Polysorbate 80, and 0.1% Parabens in water. All the mice were orally dosed for a total of 6 weeks followed by a 2-week off-treatment period. In one single-treatment control study, the five mice of the group Compound 1 were treated with Compound 1 at 100 mg/kg every other day (QOD). The vehicle group was treated with an equivalent volume of oral-QD vehicle placebo (2% Klucel LF, 0.1% Polysorbate 80, and 0.1% Parabens in water). In the combination therapy study, the five mice of the group Compound 2 were administered at 12 mg/kg orally once daily (QD). The group Combo received 100 mg/kg of Compound 1 QOD plus 12 mg/kg Compound 2 QD. The vehicle group was treated with an equivalent volume of oral-QD vehicle placebo (2% Klucel LF, 0.1% Polysorbate 80, and 0.1% Parabens in water).
In another independent study, more combinations of a TLR7 agonist plus a Capsid inhibitor and corresponding single compound treatments were tested (summarized in Table 2) using the same AAV-HBV mouse model and method of measurement of HBV biomarkers described in Example 5.
In this study, eight mice were recruited in each group, and animals received the first dose on day 28 post AAV-HBV infection. The tested combinations included Compound 1 plus Compound 4, Compound 3 plus Compound 4, and Compound 1 plus Compound 5.

[2] = system: HBV; conditions: HBV infected transgenic mouse or humanized mouse models; cited from earlier work
[3] = target: T1, human TLR7 (Homo sapiens, UniProt Q9NYK1); assay: HEK293-Blue-hTLR-7 cells assay (NF-κB/AP-1 SEAP reporter); assay type: cell-based; conditions: 20 hours incubation, read-out: TLR7 agonism activity in HEK293-hTLR-7 assay
T1 sequence (Q9NYK1 27-1049): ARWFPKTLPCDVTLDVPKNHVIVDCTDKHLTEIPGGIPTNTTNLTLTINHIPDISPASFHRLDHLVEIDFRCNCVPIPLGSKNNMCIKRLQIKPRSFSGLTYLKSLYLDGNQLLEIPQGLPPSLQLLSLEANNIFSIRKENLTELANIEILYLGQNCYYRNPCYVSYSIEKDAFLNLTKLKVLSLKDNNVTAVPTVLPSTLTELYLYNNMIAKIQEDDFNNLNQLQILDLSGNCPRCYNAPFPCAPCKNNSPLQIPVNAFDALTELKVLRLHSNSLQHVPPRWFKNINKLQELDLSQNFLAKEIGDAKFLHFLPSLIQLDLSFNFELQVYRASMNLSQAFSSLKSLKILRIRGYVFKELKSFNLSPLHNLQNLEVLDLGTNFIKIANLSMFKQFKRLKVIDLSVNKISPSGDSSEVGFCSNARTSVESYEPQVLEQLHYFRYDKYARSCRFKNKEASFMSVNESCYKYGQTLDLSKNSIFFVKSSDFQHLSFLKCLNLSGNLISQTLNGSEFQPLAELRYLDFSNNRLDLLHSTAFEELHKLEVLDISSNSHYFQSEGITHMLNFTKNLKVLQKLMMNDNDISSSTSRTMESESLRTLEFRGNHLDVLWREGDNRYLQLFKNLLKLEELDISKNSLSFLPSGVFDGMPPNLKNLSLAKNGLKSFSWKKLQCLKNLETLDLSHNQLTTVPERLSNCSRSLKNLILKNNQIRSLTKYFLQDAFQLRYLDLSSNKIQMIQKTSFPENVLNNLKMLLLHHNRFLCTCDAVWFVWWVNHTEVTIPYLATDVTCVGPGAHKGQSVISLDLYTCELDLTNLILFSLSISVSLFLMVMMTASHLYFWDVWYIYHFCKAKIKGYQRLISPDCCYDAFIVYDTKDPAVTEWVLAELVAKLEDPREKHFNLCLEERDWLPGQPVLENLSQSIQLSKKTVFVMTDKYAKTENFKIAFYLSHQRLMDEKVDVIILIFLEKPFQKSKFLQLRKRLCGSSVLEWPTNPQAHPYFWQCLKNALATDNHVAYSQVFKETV
Description: HEK293-Blue-hTLR-7 Cells Assay:
A stable HEK293-Blue-hTLR-7 cell line was purchased from InvivoGen (Cat.#: hkb-htlr7, San Diego, Calif., USA). These cells were designed for studying the stimulation of human TLR7 by monitoring the activation of NF-κB. A SEAP (secreted embryonic alkaline phosphatase) reporter gene was placed under the control of the IFN-β[…] minimal promoter fused to five NF-κB and AP-1-binding sites. The SEAP was induced by activating NF-κB and AP-1 via stimulating HEK-Blue hTLR7 cells with TLR7 ligands. Therefore the reporter expression was regulated by the NF-κB promoter upon stimulation of human TLR7 for 20 hours. The cell culture supernatant SEAP reporter activity was determined using QUANTI-Blue™ kit (Cat.#: rep-qb1, Invivogen, San Diego, Ca, USA) at a wavelength of 640 nm, a detection medium that turns purple or blue in the presence of alkaline phosphatase.
HEK293-Blue-hTLR7 cells were incubated at a density of 250,000˜450,000 cells/mL in a volume of 180 μL in a 96-well plate in Dulbecco's Modified Eagle's medium (DMEM) containing 4.5 g/L glucose, 50 U/mL penicillin, […], […], 2 mM L-glutamine, 10% (v/v) heat-inactivated fetal bovine serum for 24 h. […]

[4] = Compound 4 20 mg/kg QD, Compound 3 30 mg/kg QOD
[5] = Example 8, FIG. 8, serum, end of the 6-week treatment, Compound 8 300 mg/kg QOD PO
[6] = Example 6, FIG. 1, serum, after a 6-week treatment, oral, Compound 1 100 mg/kg QOD
[7] = Example 6, FIG. 1, serum, after a 6-week treatment, Compound 2 12 mg/kg QD oral

In the case of CCOC(=O)C1=C(CN2CCN3C(=O)N(CC(C)(C)C(=O)O)C[C@@H]3C2)NC(c2nccs2)=N[C@H]1c1cccc(F)c1C [Compound 4, 3-[(8aS)-7-[[(4S)-5-ethoxycarbonyl-4-(3-fluoro-2-methyl-phenyl)-2-thiazol-2-yl-1,4-dihydropyrimidin-6-yl]methyl]-3-oxo-5,6,8,8a-tetrahydro-1H-imidazo[1,5-a]pyrazin-2-yl]-2,2-dimethyl-propanoic acid], the “effect on HBV DNA” value [1, 4] is reported as “inhibited” and the HBsAg reduction ([1]; Example 7, FIG. 4 and 5, serum, end of 6-week treatment, PO, Compound 1 100 mg/kg QOD, Compound 3 30 mg/kg QOD, Compound 4 20 mg/kg QD) is reported as 2 log.
For CC(=O)O[C@@H](C1CC1)[C@H]1O[C@@H](n2c(=O)sc3cnc(N)nc32)CS1 [Compound 3, [(S)-[(2S,5R)-5-(5-amino-2-oxo-thiazolo[4,5-d]pyrimidin-3-yl)-1,3-oxathiolan-2-yl]-cyclopropyl-methyl] acetate], the “effect on HBV DNA” value [1, 4] was “reduced” and the “effect on HBsAg” value ([1]; Compound 3 30 mg/kg QOD) was “reduced”.
For CC(=O)O[C@@H]1C[C@@H](CO)O[C@H]1n1c(=O)sc2cnc(N)nc21 [Compound 8, 5-amino-3-(2′-O-acetyl-3′-deoxy-β-D-ribofuranosyl)-3H-thiazolo[4,5-d]pyrimidin-2-one], the “HBV DNA reduction” value [1, 5] was “about 2 log” and the HBsAg reduction [1, 5] was ~1.5 log.
With CCOC(=O)C1=C(CN2CCN3C(=O)N(CC(C)(C)C(=O)O)C[C@@H]3C2)NC(c2nccs2)=N[C@H]1c1cccc(F)c1Cl [Compound 2, 3-[(8aS)-7-[[(4R)-4-(2-chloro-3-fluoro-phenyl)-5-ethoxycarbonyl-2-thiazol-2-yl-1,4-dihydropyrimidin-6-yl]methyl]-3-oxo-5,6,8,8a-tetrahydro-1H-imidazo[1,5-a]pyrazin-2-yl]-2,2-dimethyl-propanoic acid] the “reduction in HBV DNA” value [1, 6] was “more than 3 log”, the “HBV DNA level” value [1, 7] was “below the LLQ” and the “HBsAg level (effect in words)” value [1, 7] was “moderately reduced”.
With COC(=O)C1=C(CN2[C@@H]3C[C@H](CC(=O)O)C[C@H]2C(F)(F)C3)NC(c2nccs2)=N[C@H]1c1cccc(F)c1Cl [Compound 5, 2-[(1R,3S,5S)-8-[[(4R)-4-(2-chloro-3-fluoro-phenyl)-5-methoxycarbonyl-2-thiazol-2-yl-1,4-dihydropyrimidin-6-yl]methyl]-6,6-difluoro-8-azabicyclo[3.2.1]octan-3-yl]acetic acid] the “effect on HBV DNA” value [1, 4] was “reduced” and the “effect on HBsAg” value ([1]; Compound 3 30 mg/kg QOD) was “reduced”.
In the case of COC(=O)C1=C(C)NC(c2ncc(F)cc2F)=N[C@H]1c1ccc(F)cc1Cl [Bay 41-4109], the “in vivo efficacy (HBV DNA)” value [2] is given as “in vivo efficacy with HBV DNA reduction”.
CC[C@H](O)[C@@H]1C[C@@H](O)[C@H](n2c(=O)sc3c(=O)[nH]c(N)nc32)O1 [compound 11] gave an EC50 [3] of 72 µM.
With CC[C@H](OC(C)=O)[C@@H]1C[C@@H](O)[C@H](n2c(=O)sc3cnc(N)nc32)O1 [Compound 1, [(1S)-1-[(2S,4R,5R)-5-(5-amino-2-oxo-thiazolo[4,5-d]pyrimidin-3-yl)-4-hydroxy-tetrahydrofuran-2-yl]propyl] acetate] the “reduction in HBsAg” value [1, 6] was “more than 1 log” and the “reduction in HBV DNA” value [1, 6] was “more than 2 log”.
